Results published in US20250122190A1, “HALOGEN-SUBSTITUTED PYRIDAZINONE COMPOUND AND APPLICATION THEREOF” (MEDSHINE DISCOVERY INC., priority 2021, published 2025).
Read-outs that look alike come from different tables or passages of the source.

Experiments:
[1] = tested on: rat models of hypertensive renal disease; test: Pharmacodynamic study in DOCA-NaCl induced hypertensive renal disease model; type: in vivo, male SD rats
Source text: PD and pharmacodynamic studies on the compounds of the present disclosure in male SD rat models of hypertension induced with deoxycorticosterone acetate-sodium chloride (DOCA-NaCl).
Prior to commencing the procedure, 7-8 weeks old male SD rats were allowed one week acclimatization. On the day of surgery, the table of the surgical area was disinfected with a disinfectant, and the rats were anesthetized with 2%-5% isoflurane and fixed on the table. The abdominal hair was removed and the surgical skin was disinfected. The skin and abdominal wall were cut open to expose the right kidney. The arteries and veins near the renal hilum were ligated. After it was confirmed that there were no bleeding points, the renal blood vessels and surrounding ligaments were bluntly separated and the right kidney was removed. After it was confirmed that there were no bleeding points, the abdominal wall muscle and skin were sutured. After the rats woke up, they were returned to the cage and observed. The rats were injected subcutaneously with meloxicam injection once a day for 3 consecutive days for pain relief.
One week after unilateral kidney removal, the animals were randomly divided into vehicle group, low dose group and high dose group according to body weight/blood pressure. The drinking water of animals in all groups was changed to an aqueous solution containing 1% sodium chloride+0.2% potassium chloride. […]

[2] = Rat group tissue distribution test; type: in vivo, SD male rats; conditions: intragastric, SD rats, n = 3; for concentration at 1 h / concentration at 4 h / concentration at 12 h: male, Sprague Dawley, rat, oral, read-out: Average drug concentration
Source text: In this study, SD male rats were selected as the test animals, and the LC/MS/MS method was used to quantitatively determine the drug concentration at different time points in the plasma, cerebrospinal fluid, brain, liver, and kidney of the test compounds administered orally to evaluate the tissue distribution of the test drugs in the rats.
Experimental materials: Sprague Dawley (SD) rats (male, 200-300 g, 7-10 weeks old, Beijing Vital River).
A clear solution or suspension of the test compounds was administered intragastrically into SD rats (fasted) (vehicle: 5% DMSO/10% Kolliphor® HS 15/85% water). […] The mixture was vortexed thoroughly and centrifuged at 3200 g, 4° C. for 10 minutes to obtain the plasma. The cerebrospinal fluid (about 0.02 mL) was collected. The brain, liver, and kidney were collected, rinsed with pre-cooled physiological saline, dried with paper, and then homogenated in a ratio of 1:4 (1 g of tissue: 4 mL of 15 mM phosphate-buffered physiological saline/MeOH (2:1)). The LC-MS/MS method was used to determine the drug concentration, and the Phoenix WinNonlin 6.3 pharmacokinetic software was used to calculate the relevant pharmacokinetic parameters by the non-compartmental model linear logarithmic trapezoidal method.

Row | SMILES | urinary albumin level ([1]; 30 mg/kg and 60 mg/kg intragastrically once a day for 28 days, vs vehicle control group) | expression of urinary Rac1 ([1]; low and high dose, intragastrically once a day for 28 days, vs vehicle group) | Average drug concentration ([2]; Brain, 12 h) | concentration at 1 h ([2]; Brain) | concentration at 4 h ([2]; Brain) | concentration at 1 h ([2]; Kidney) | concentration at 4 h ([2]; Kidney) | concentration at 12 h ([2]; Kidney, 12 h) | concentration at 1 h ([2]; Liver) | concentration at 4 h ([2]; Liver) | concentration at 12 h ([2]; Liver, 12 h) | concentration at 1 h ([2]; Plasma) | concentration at 4 h ([2]; Plasma) | concentration at 12 h ([2]; Plasma, 12 h) | concentration at 12 h ([2]; Brain, 12 h)
1 | O=c1[nH]ncc(N2CCc3c(ncnc3Sc3ccc(F)cc3C(F)(F)F)C2)c1Cl [Compound WX002] | significantly reduce | dose-dependently reduce |  |  |  |  |  |  |  |  |  |  |  |  | 
2 | O=c1[nH]ncc(N2CCc3c(nc(CO)nc3Sc3ccc(F)cc3C(F)(F)F)C2)c1Cl [Compound WX012] |  |  | BQL | 0.282 µM | 0.373 µM | 2.63 µM | 3.44 µM | 0.276 µM | 5.12 µM | 5.82 µM | 0.57 µM | 0.773 µM | 1.08 µM | 0.0827 µM | 
3 | Nc1nc2c(c(Sc3ccc(F)cc3C(F)(F)F)n1)CCN(c1cn[nH]c(=O)c1Cl)C2 [Compound WX013] |  |  |  | 0.139 µM | 0.197 µM | 1.26 µM | 1.47 µM | 0.59 µM | 2.61 µM | 3.36 µM | 0.945 µM | 0.536 µM | 0.716 µM | 0.272 µM | 0.086 µM
